Our source for the IC50 values is patent US20120309796A1, “BENZOCYCLOHEPTENE ACETIC ACIDS” (priority 2011, published 2012).

In one assay the target is T1, human CRTH2 (Homo sapiens, UniProt Q9Y5Y4).
T1 sequence (Q9Y5Y4 1-395): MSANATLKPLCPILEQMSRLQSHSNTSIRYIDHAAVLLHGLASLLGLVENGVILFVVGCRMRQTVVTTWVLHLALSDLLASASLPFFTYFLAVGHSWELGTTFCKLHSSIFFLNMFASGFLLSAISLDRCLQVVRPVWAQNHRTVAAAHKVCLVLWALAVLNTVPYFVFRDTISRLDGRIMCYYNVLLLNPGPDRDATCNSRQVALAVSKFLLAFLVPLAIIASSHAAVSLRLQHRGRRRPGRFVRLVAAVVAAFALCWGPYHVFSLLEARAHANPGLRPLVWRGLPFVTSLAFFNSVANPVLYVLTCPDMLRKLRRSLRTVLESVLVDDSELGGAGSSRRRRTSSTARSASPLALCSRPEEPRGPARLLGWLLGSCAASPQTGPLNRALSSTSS
Kind of assay: Human CRTH2 Receptor Binding Assay (whole cell, [3H]ramatroban competition). Particulars: CHO-K1 cells expressing human CRTH2 and G-alpha16; 20 nM [3H]ramatroban; 1 hour, room temperature. Set-up: two mammalian expression vectors that harbored human CRTH2 and G-alpha16 cDNAs; expressed in transfected cells. The method in brief:
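CHO-K1 cells stably co-expressing human CRTH2 and G-alpha16 (1.5×10^5/reaction) incubated 1 h at room temperature with 20 nM [3H]ramatroban in PBS, 10 mM MgCl2, 0.06% BSA. Non-specific binding defined with 10 μM 15(R)-15-methyl PGD2; IC50 from 7-point inhibition of specific binding, 4-parameter logistic fit.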

Assay [1] addresses T2, thromboxane A2 receptor (TP) (Homo sapiens, UniProt P21731).
T2 construct: using human platelets as the source of the receptor; from tissue; host or cells: human platelets (whole platelets, 5x10^7 per well)
T2 sequence (P21731 1-343): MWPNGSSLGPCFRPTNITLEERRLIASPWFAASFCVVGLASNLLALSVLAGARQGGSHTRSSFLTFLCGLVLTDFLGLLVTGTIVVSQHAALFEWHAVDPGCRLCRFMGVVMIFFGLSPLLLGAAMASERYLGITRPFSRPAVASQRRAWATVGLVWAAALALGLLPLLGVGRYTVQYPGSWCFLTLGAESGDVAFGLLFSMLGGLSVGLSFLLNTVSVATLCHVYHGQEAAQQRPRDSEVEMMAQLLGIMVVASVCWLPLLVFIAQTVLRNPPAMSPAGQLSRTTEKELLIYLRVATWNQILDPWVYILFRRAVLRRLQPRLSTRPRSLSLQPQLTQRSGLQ
Kind of assay: Human Thromboxane A2 Receptor Binding Assay. Particulars: human platelets; 10 nM [3H]SQ29548; 1 hour, room temperature. The text has this: The thromboxane A2 receptor (TP) plays a key role in hemostasis as its abnormality leads to bleeding disorders. To avoid the potential liability of bleeding disorders, the binding activity of certain compounds of the present invention against TP was monitored by a receptor binding assay using human platelets as the source of the receptor and [^3H]SQ29548 (generically named (5Z)-[5,6-^3H]-7-[(1S,2R,3R,4R)-3-[[2-[(phenylamino)carbonyl]hydrazinyl]methyl]-7-oxabicyclo[2.2.1]hept-2-yl]-5-heptenoic acid, from PerkinElmer Inc.) as the competing radioactive ligand.
The TP binding reactions (0.2 mL) were performed in 96-well plates at room temperature in PBS containing 5×10^7 platelets, 10 mM MgCl2, 0.06% BSA, 10 nM [^3H]SQ29548, and the test compound at various concentrations. […] The radioactivities bound to the platelets were determined using a microplate scintillation counter (TopCount® NXT, from PerkinElmer Inc.) after adding 50 μL of Microscint™ 20 scintillation fluid (from PerkinElmer Inc.) to each well of the filter plates. The radioactivity from non-specific binding was determined by replacing the compound with 10 μM of ramatroban (BAY-u3405, from Cayman Chemical Company) in the reaction mixtures. The radioactivity bound to the platelets in the absence of compound (total binding) was determined by replacing the compound with 0.25% of DMSO in the reaction mixture. […]

Structures are written as SMILES.

In general, IC50 refers to the point on the concentration scale where inhibition reaches its midpoint. Lower therefore signals greater potency. As to `O=C(O)COc1cccc2c1CCCCC2NS(=O)(=O)c1cc(C(F)(F)F)cc(C(F)(F)F)c1` (single isomer, unassigned) [Example 46, [5-(3,5-Bis-trifluoromethyl-benzenesulfonylamino)-6,7,8,9-tetrahydro-5H-benzocyclohepten-1-yloxy]-acetic acid], the IC50 at human CRTH2 was found to be 24.5 nM; in assay [1] it was 3610 nM.
In the case of `O=C(O)COc1cccc2c1CCCCC2NS(=O)(=O)c1cc(C(F)(F)F)cc(C(F)(F)F)c1` (stereo not shown) [Example 1, [5-(3,5-Bis-trifluoromethyl-benzenesulfonylamino)-6,7,8,9-tetrahydro-5H-benzocyclohepten-1-yloxy]-acetic acid], the results for the IC50 (at human CRTH2; in assay [1]) were 8.9 nM and 642 nM, respectively.
